# Laboratory results as given in patent publication US10208020B2, “Substituted amino triazoles useful as human chitinase inhibitors” (OncoArendi Therapeutics S.A., priority 2015, dated 2019).
# How the values were obtained:
# [1] = target: recombinant human CHIT1 (Homo sapiens (Human), UniProt Q13231); assay: Human CHIT1 activity assay; assay type: biochemical; conditions: citrate buffer pH 5.2, 37° C., 60 minutes; 4-methylumbelliferyl β-D-N,N′,N″-triacetylchitotriose substrate; read-out: Activity on hCHIT1, IC50
# recombinant human CHIT1, sequence (Q13231 22-466): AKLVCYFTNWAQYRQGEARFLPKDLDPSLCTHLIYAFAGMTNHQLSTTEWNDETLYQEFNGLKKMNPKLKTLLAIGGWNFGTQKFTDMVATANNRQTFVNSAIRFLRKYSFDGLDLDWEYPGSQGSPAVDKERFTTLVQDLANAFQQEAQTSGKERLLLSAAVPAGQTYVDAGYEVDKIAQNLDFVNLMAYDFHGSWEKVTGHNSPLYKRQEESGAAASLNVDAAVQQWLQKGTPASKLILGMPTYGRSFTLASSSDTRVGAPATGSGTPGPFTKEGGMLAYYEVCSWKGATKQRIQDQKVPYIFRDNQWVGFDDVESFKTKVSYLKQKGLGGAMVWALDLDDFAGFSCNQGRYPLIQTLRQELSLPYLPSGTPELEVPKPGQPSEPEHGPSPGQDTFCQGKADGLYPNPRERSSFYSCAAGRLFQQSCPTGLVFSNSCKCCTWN
# [2] = target: recombinant human AMCase (Homo sapiens (Human), UniProt Q9BZP6); assay: Human AMCase activity assay; assay type: biochemical; conditions: citrate buffer pH 5.2, 37° C., 60 minutes; 4-methylumbelliferyl B-D-N,N′-diacetylchitobioside substrate; read-out: Activity on hAMCase, IC50
# recombinant human AMCase, sequence (Q9BZP6 22-476): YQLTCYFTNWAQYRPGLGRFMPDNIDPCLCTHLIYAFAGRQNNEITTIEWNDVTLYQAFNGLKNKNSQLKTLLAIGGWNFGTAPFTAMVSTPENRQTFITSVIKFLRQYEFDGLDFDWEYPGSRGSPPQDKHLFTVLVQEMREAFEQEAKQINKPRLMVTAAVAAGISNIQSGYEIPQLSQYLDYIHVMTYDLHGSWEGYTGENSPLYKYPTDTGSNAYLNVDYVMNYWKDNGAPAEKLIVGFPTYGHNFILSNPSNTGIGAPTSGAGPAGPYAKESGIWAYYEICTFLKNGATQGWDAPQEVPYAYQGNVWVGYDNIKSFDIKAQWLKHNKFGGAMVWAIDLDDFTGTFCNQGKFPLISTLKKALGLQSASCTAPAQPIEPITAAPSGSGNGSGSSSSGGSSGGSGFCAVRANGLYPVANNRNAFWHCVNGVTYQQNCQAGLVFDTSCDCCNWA
IC50 [1],IC50 [2],SMILES
1000 to 10000 nM,–,"CC1(C(=O)O)CC[C@H](Cc2ccc(Cl)cc2)N(C2CCN(c3nnc(N)[nH]3)CC2)C1 (stereo partly drawn) [Example 18, (6R)-1′-(5-amino-4H-1,2,4-triazol-3-yl)-6-(4-chlorobenzyl)-3-methyl-[1,4′-bipiperidine]-3-carboxylic acid]"
10000 to 100000 nM,–,"Cc1ccc(S(=O)(=O)N2CCN(C3CCN(c4nnc(N)[nH]4)CC3)[C@@H](Cc3ccc(Cl)cc3)C2)cc1 [Example 35, (S)-5-(4-(2-(4-chlorobenzyl)-4-tosylpiperazin-1-yl)piperidin-1-yl)-4H-1,2,4-triazol-3-amine]"
10000 to 100000 nM,–,"C[C@H]1CN(C2CCN(c3nnc(N)[nH]3)CC2)[C@@H](Cc2ccc(Cl)cc2)CN1S(C)(=O)=O [Example 37, 5-(4-((2S,5S)-2-(4-chlorobenzyl)-5-methyl-4-(methylsulfonyl)piperazin-1-yl)piperidin-1-yl)-4H-1,2,4-triazol-3-amine]"
10000 to 100000 nM,–,"COC(=O)N1C[C@H](Cc2ccc(Cl)cc2)N(C2CCN(c3nnc(N)[nH]3)CC2)C[C@@H]1C [Example 39, methyl (2S,5S)-4-(1-(5-amino-4H-1,2,4-triazol-3-yl)piperidin-4-yl)-5-(4-chlorobenzyl)-2-methylpiperazine-1-carboxylate]"
100 to 1000 nM,< 100 nM,"COC(=O)CN1C[C@H](Cc2ccc(Cl)cc2)N(C2CCN(c3nnc(N)[nH]3)CC2)C[C@@H]1C [Example 40, methyl 2-((2S,5S)-4-(1-(5-amino-4H-1,2,4-triazol-3-yl)piperidin-4-yl)-5-(4-chlorobenzyl)-2-methylpiperazin-1-yl)acetate]"
100 to 1000 nM,< 100 nM,"C[C@H]1CN(C2CCN(c3nnc(N)[nH]3)CC2)[C@@H](Cc2ccc(Cl)cc2)CN1CC(=O)O [Example 41, 2-((2S,5S)-4-(1-(5-amino-4H-1,2,4-triazol-3-yl)piperidin-4-yl)-5-(4-chlorobenzyl)-2-methylpiperazin-1-yl)acetic acid]"
10000 to 100000 nM,–,"C[C@H]1CN(C2CCN(c3nnc(N)[nH]3)CC2)[C@@H](Cc2ccc(Cl)cc2)C(C)(C)O1 [Example 53, 5-(4-((3S,6S)-3-(4-chlorobenzyl)-2,2,6-trimethylmorpholino)piperidin-1-yl)-4H-1,2,4-triazol-3-amine]"

# More lines, now with the values behind:
SMILES,IC50 [1],IC50 [2]
"Nc1nnc(N2CCC(N3CCOC[C@@H]3Cc3ccc(Cl)cc3)CC2)[nH]1 [Example 1, (S)-5-(4-(3-(4-chlorobenzyl)morpholino)piperidin-1-yl)-4H-1,2,4-triazol-3-amine]",< 100 nM,–
"Nc1nnc(N2CCC(N3CCOC[C@@H]3Cc3ccc(Br)cc3)CC2)[nH]1 [Example 3, (S)-5-(4-(3-(4-bromobenzyl)morpholino)piperidin-1-yl)-4H-1,2,4-triazol-3-amine]",< 100 nM,–
"CCOC[C@H]1CN(C2CCN(c3nnc(N)[nH]3)CC2)[C@@H](Cc2ccc(Cl)cc2)CO1 [Example 11, 5-(4-((2R,5S)-5-(4-chlorobenzyl)-2-(ethoxymethyl)morpholino)piperidin-1-yl)-4H-1,2,4-triazol-3-amine]",–,< 100 nM
"COC(C)(C)[C@H]1CN(C2CCN(c3nnc(N)[nH]3)CC2)[C@@H](Cc2ccc(Cl)cc2)CO1 [Example 14, 5-(4-((2R,5S)-5-(4-chlorobenzyl)-2-(2-methoxypropan-2-yl)morpholino)piperidin-1-yl)-4H-1,2,4-triazol-3-amine]",< 100 nM,< 100 nM
"Nc1nnc(N2CCC(N3CCCC[C@@H]3Cc3ccc(Cl)cc3)CC2)[nH]1 [Example 15, (R)-5-(2-(4-chlorobenzyl)-[1,4′-bipiperidin]-1′-yl)-4H-1,2,4-triazol-3-amine]",< 100 nM,–
"CCOC(=O)C1CC[C@H](Cc2ccc(Cl)cc2)N(C2CCN(c3nnc(N)[nH]3)CC2)C1 (stereo partly drawn) [Example 16, ethyl (6R)-1′-(5-amino-4H-1,2,4-triazol-3-yl)-6-(4-chlorobenzyl)-[1,4′-bipiperidine]-3-carboxylate]",< 100 nM,–
"Nc1nnc(N2CCC(N3CC(C(=O)O)CC[C@@H]3Cc3ccc(Cl)cc3)CC2)[nH]1 (stereo partly drawn) [Example 17, (6R)-1′-(5-amino-4H-1,2,4-triazol-3-yl)-6-(4-chlorobenzyl)-[1,4′-bipiperidine]-3-carboxylic acid]",100 to 1000 nM,–
"Nc1nnc(N2CCC(N3C[C@@H]4CCCN4C[C@@H]3Cc3ccc(Cl)cc3)CC2)[nH]1 [Example 49, 5-(4-((3S,8aS)-3-(4-chlorobenzyl)hexahydropyrrolo[1,2-a]pyrazin-2(1H)-yl)piperidin-1-yl)-4H-1,2,4-triazol-3-amine]",1000 to 10000 nM,< 100 nM
